Our source for the IC50 values is doi:10.1101/208439v1 (biorxiv, 2017).

One assay addresses T1, DNMT3b (Homo sapiens, UniProt Q9UBC3).
T1 construct: residues 2-853, N-terminal GST fusion, insect cell/baculovirus
Briefly: HotSpot [3H]SAM filter-binding methyltransferase assay. The format is biochemical.

The next assay has as its target MLL2 Complex (Homo sapiens, UniProt O14686). The assay is described as above. In kind it is biochemical. Details: gene KMT2D; complex assembled as MLL1; MLL2 here is KMT2D (NM_003482), His tag, E. coli; with WD repeat-containing protein 5; Set1/Ash2 histone methyltransferase complex subunit ASH2; Protein dpy-30 homolog.
In another assay the target is T2, GLP (Homo sapiens, UniProt Q9H9B1).
T2 construct: gene EHMT1
T2 sequence (Q9H9B1 1-1298): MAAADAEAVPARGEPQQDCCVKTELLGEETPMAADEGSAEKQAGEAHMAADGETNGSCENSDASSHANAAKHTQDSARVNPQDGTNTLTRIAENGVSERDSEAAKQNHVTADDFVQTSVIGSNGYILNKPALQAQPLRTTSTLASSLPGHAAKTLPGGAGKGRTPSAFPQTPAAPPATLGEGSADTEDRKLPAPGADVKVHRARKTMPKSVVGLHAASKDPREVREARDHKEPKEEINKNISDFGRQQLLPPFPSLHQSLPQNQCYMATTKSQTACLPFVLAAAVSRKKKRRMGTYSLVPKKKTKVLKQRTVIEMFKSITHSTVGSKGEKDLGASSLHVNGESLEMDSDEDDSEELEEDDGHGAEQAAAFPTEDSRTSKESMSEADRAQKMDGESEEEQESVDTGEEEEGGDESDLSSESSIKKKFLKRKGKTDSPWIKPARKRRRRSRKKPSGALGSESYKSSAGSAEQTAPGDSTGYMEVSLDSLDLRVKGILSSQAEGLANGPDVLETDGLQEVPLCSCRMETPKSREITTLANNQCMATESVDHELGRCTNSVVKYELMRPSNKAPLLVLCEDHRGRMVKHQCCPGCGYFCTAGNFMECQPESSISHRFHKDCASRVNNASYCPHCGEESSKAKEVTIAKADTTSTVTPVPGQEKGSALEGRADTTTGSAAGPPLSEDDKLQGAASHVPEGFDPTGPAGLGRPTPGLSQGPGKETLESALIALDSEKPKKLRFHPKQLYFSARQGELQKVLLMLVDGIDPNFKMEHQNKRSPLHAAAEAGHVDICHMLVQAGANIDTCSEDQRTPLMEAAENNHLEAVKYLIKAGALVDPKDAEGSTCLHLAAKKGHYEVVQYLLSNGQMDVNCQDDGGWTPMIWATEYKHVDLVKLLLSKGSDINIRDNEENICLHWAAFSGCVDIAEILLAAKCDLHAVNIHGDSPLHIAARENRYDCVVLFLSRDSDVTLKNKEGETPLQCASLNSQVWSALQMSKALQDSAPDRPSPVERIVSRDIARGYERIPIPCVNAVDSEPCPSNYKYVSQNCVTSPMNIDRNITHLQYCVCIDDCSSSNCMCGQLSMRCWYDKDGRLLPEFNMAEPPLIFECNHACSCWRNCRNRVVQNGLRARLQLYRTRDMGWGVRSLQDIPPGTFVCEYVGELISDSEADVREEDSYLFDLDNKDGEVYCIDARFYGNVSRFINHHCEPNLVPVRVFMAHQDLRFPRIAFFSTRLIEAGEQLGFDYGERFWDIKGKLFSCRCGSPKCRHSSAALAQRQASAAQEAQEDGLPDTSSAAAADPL
Nature of the assay: biochemical. As to conditions: read-out: DA3003-1 IC50; inhibitor.

For the next assay, the target named is PRMT6 (Homo sapiens, UniProt Q96LA8). As to conditions: read-out: DA3003-1 IC50; inhibitor.
A further assay deals with T3, PRMT4 (Homo sapiens, UniProt Q86X55).
T3 construct: gene CARM1
The settings on record: read-out: DA3003-1 IC50; inhibitor.

SMILES strings stand for the structures. Where two headings read alike, the source gives them in different places.

MLL2 Complex, sequence (O14686 5319-5537): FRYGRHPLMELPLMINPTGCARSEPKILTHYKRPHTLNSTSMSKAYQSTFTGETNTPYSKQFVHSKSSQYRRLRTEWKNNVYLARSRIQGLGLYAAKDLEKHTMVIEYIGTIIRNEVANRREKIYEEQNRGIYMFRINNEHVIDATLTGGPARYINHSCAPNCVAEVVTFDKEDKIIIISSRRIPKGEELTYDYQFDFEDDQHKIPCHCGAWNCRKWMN
MLL2 Complex, sequence (Q15291 whole entry, further chain): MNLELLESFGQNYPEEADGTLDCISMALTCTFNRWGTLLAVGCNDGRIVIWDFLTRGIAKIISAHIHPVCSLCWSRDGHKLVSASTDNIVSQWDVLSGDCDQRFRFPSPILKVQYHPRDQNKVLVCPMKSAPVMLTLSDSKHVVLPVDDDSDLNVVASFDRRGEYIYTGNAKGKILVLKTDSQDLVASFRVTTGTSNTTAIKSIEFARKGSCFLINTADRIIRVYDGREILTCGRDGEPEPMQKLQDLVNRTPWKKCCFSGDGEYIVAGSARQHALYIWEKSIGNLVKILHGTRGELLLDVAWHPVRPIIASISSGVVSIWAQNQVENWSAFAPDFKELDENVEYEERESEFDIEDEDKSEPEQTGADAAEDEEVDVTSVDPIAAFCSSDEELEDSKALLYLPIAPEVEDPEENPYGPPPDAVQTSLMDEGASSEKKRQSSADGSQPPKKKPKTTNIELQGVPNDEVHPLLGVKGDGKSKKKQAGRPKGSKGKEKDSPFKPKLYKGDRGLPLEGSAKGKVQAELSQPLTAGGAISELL
MLL2 Complex, sequence (Q9UBL3 96-628, further chain): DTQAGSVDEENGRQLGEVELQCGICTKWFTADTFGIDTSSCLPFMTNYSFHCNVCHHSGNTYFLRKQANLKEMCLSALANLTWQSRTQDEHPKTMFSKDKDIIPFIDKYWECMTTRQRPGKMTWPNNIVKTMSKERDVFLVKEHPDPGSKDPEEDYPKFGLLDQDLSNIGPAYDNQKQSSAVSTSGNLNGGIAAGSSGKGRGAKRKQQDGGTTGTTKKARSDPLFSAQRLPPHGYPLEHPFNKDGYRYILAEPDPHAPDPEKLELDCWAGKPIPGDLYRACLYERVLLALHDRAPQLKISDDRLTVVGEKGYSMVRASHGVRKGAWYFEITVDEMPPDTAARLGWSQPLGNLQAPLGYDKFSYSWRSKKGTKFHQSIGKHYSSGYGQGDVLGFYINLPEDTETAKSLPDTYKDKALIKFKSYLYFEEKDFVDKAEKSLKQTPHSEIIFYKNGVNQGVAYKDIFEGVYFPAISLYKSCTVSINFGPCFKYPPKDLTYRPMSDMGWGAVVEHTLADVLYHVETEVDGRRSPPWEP
MLL2 Complex, sequence (Q9C005 whole entry, further chain): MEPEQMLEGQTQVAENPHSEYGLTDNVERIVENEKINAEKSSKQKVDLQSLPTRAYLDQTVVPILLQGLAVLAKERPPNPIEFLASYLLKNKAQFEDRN
PRMT6, sequence (Q96LA8 whole entry): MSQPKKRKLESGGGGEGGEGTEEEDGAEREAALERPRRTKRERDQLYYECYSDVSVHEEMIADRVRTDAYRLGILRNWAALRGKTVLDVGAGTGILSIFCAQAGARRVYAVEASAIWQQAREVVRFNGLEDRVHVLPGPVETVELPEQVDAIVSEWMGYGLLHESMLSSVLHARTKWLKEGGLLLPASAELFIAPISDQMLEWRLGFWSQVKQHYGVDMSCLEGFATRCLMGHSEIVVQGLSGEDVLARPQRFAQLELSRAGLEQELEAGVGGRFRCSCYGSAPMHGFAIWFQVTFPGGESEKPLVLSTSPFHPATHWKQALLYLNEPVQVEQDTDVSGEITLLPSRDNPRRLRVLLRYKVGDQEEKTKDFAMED
T3 sequence (Q86X55 whole entry): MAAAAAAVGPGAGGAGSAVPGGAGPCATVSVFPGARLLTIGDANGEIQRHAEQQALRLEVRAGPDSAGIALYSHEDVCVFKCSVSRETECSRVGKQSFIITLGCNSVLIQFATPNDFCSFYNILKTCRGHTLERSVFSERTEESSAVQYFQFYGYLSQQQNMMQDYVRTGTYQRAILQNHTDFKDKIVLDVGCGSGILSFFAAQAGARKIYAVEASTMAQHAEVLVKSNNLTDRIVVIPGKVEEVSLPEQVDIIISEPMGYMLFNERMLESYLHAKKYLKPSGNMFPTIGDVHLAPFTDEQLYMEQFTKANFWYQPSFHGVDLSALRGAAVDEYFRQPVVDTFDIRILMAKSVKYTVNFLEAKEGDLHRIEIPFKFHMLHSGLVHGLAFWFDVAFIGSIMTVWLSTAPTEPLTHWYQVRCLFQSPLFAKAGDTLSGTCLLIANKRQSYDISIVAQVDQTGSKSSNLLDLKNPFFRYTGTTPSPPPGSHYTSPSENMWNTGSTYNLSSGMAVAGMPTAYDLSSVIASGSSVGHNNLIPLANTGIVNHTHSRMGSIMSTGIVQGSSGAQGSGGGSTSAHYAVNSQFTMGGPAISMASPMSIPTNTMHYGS

For orientation: IC50 means the concentration at which inhibition is half-maximal. `CC1(C)CCC(CN2CCN(c3ccc(C(=O)NS(=O)(=O)c4ccc(NCC5CCOCC5)c([N+](=O)[O-])c4)c(Oc4cnc5[nH]ccc5c4)c3)CC2)=C(c2ccc(Cl)cc2)C1` [ABT-199]: the IC50 on DNMT3b was greater than 100 µM; at MLL2 Complex, 4.6 µM.
In the case of `O=C1C(Cl)=C(NCCN2CCOCC2)C(=O)c2ncccc21` [DA3003-1], the 50% inhibitory concentration (IC50) came to 36 µM at GLP, 1 µM on PRMT6 and 1.4 µM on PRMT4.
Turning to `COc1cccc(-n2nc(C(=O)O)cc2-c2ccc(C3CCCCC3)c(Cl)c2)c1` [TC LPA5 4], the IC50 amounted to 24 µM at DNMT3b (lambda DNA, […] SAM, pH […] EDTA, […] DTT, […] °C, single experiment) and 18 µM on MLL2 Complex (nucleosomes, […] SAM, pH […] MgCl2, […] DTT, […] °C, single experiment).
